Data from patent publication US4513008A, “Virucidal compositions and therapy” (The Vinoxen Company, Inc., priority 1982, dated 1985).

How the values were obtained:
virus = details: cited from earlier work
HSV-2 = test: In vivo mouse bioassay: intravaginal HSV-2 infection, topical treatment; set-up: species or system HSV-2 strain 333 in female Swiss Webster mice; key to Max. Lesion Score: 0: no clinical signs of vaginal infection; ±: slight perivaginal redness; perivaginal redness and swelling of 1-2 mm; perivaginal redness and swelling of 2-3 mm; perivaginal and perianal redness and swelling of 3-4 mm; perivaginal and perianal redness and swelling of 4 mm or more, with exudate; details: for # Infected, Day 14 / # of Deaths, Day 14: 10 animals/group
[1] = Guinea pig toxicity controls (sham-infected, topical treatment); format: in vivo, guinea pigs; details: B: 5% w/w ACV in PEG-1000
Protocol: (§1) Drugs. The substances tested consisted of four bottles labelled "A", "B", "C", and "D" with no identifying key. The samples were: A, 0.1 mg/ml DHA (0.003 mmol/ml); B, 5% w/w ACV (0.22 mmol/ml); C, 1 mg/ml DHA (0.03 mmol/ml); and D, 10 mg/ml DHA ([…]). […] All were treated as light-sensitive compounds.
(§2) Experimental Protocol. The guinea pigs were infected by applying a virus-soaked swab intravaginally, with agitation, for 20 seconds. Toxicity control animals were similar pretreated using swabs soaked in sterile Puck's balanced salt solution. Treatment began 20 hr later, with the compound or placebo applied topically intravaginally, perivaginally, and perianally using cotton swabs soaked in the respective substance. Treatment continued three times daily (8 a.m., noon, 4 p.m.) for 7 days. Ten infected animals were used for each coded substance, with twenty used for virus controls. Five sham-infected animals were concomitantly treated with each coded substance to serve as toxicity controls. Two guinea pigs were held separately to serve as normal untreated controls.
(§3) Each animal was observed daily for survival for a total of 28 days. On days 5 through 8 post-virus inoculation, the genital area was carefully examined and signs of irritation in the toxicity controls and lesion severity in injected animals was scored on a 0 to 4 scale using the same scale as in the mouse bioassay. The results were scored as average daily lesion (ADL) scores for each group, and as mean vaginal lesion (MVL) scores, calculated as the mean of the ADL scores for days 5-8. The maximum mean score for the toxicity control animals was also determined.

herpes virus type 2 = test: Guinea pig bioassay: intravaginal HSV-2 infection, topical treatment; format: in vivo; set-up: key to MVL Score Day 5 / MVL Score Day 6 / MVL Score Day 7 / MVL Score Day: lesion severity scored on 0 to 4 scale
Protocol: In both studies, DHA was compared with ACV in a controlled study for effectiveness in reducing the occurrence and the severity of lesions resulting from infection by HSV-2 and in reducing mortality resulting from the virus infection.
Using substantially the procedures of Pancic et al., loc. cit., the topical activity of DHA, a representative and preferred virucide for use in the present method, was evaluated in mice and in guinea pigs. Both evaluations included comparative testing against ACV and the mouse tests included a comparison of two different vehicles.
A blind comparative test was carried out on guinea pigs using coded substances labeled A through D. The testers were told only that one of the four substances was ACV, that the other three coded samples were the same material, in concentrations of 0.1, 1.0 and 10 mg/ml, and that all four samples were formulated in a polyethylene glycol 1000 (PEG-1000) vehicle. A separate sample of the PEG-1000 was also submitted to serve as a placebo for treating virus control animals. The materials and experimental protocol is shown below.
Animals. Female Hartley strain albino guinea pigs weighing about 450-500 g were used. The animals were quarantined 24 hr prior to use in this study, and maintained 5 to a 32"×32"×9" stainless steel cage on Wayne guinea pig diet and water ad libitum.
Virus. Strain E194 of herpes virus type 2 was used. […] The virus was held at -90° C. until used.
as §1
as §2, with “Toxicity control animals were similar pretreated using swabs soaked in sterile Puck's balanced salt solution.” left out
as §3, with “On” for “Each animal was observed daily for survival for a total of 28 days. On”
On day 6 prior to the 8 a.m. treatment, intravaginal and perivaginal areas of each infected guinea pig were uniformly swabbed with sterile cotton swabs. The swab for each animal was placed in 1.0 ml of sterile Eagles minimum essential medium and immediately frozen at -90° C.; several days later all were thawed and each swab-containing sample vortexed for 15 seconds and then the sample was diluted through a series of 10-fold dilutions in sterile medium. Each dilution was assayed for virus in triplicate by adding 0.1 ml to an established monolayer of MA-104 cells in 96-well disposable plastic microplates. The plates were sealed, incubated at 72 hr at 37° C., and virus-induced cytopathic effect noted microscopically.
Data Analysis. Increases in survivors were analyzed using chi square analysis with Yate's correction. Mean survival times (MST) of animals dying on or before […] were determined for each group, and evaluated using the t test.

bacteriophage = details: cited from earlier work
[2] = test system: herpes simplex virus type 2 (HSV-2); test: In vitro HSV-2 bioassay: virucidal plaque assay (HEP-2 cells); format: cell-based, HSV-2 strain 333; details: for plaque count: TNTC = too numerous to count
Protocol: Evidence of the efficacy of the virucides of the invention in vitro has been obtained from bioassay using HSV-2, using a standard assay procedure. Serial dilutions of the compounds were tested for their ability to prevent plaque formation by a stock virus suspension. Reduction of plaque titer by test compounds as compared to mock treated controls was indicative of virucidal activity. […] These represent the upper limit for the drug concentration, since dilutions were not carried beyond 1:6400 and in some cases 1:12800.
Cell Culture. Cell cultures used for the propagation and titration of HSV-2 were the human diploid lung embryonic line MRC-5 and the human malignant epitheloid cell line HEP-2 respectively. Stock monolayer cultures of both cell lines were propagated in Dulbecco's Modified Eagle's medium (DME) supplemented with 10% (V/V) calf serum. Spinner cultures for mass production of HEP-2 cells were grown in Joklik's medium supplemented with 10% (V/V) calf serum and 1% (W/V) pluronic acid. Monolayer cultures of HEP-2 cells for plaque or virucidal assay were seeded into 60 mm dishes in DME supplemented with 10% calf serum and antibiotics. Stock cultures were maintained in antibiotic free medium.
Herpes simplex virus, type 2 (HSV-2) strain 333 was obtained from Dr. John Hughes of the Dept. of Medical Microbiology, College of Medicine, The Ohio State University. Stocks of HSV-2 were prepared in the human diploid embryonic lung cell line, MRC-5. Confluent MRC-5 monolayer cultures in T-75 plastic flasks were washed one time with Hank's and Balanced Salt solution (HBSS) and infected with 0.5 ml of HSV-2, strain 333 stock. Virus was adsorbed for 1 hour at 37° C. Then the culture was refed with 15 ml of DME supplemented with 1% (V/V) calf serum. Virus was harvested 48 hours later when cytopathology was complete. Cultures were frozen and thawed rapidly three times to release cell associated virus, clarified by centrifugation at 10,000×g for 15 minutes at 4° C., aliquoted into 5 ml lots and frozen at -70° C. One lot was taken for virus titration.
HSV-2 was titrated by plaque assay in HEP-2 cells under a semi-solid methyl cellulose overlay. Tenfold serial dilutions of virus were prepared in HBSS and 0.3 ml aliquots of each dilution inoculated onto triplicate HEP-2 cell monolayers in 60 mm plastic petri dishes. Adsorption of virus was for 1 hour at 37° C. Plates were then overlayed with 5 ml of a 1:1 mixture of 2×DME supplemented with 2% (V/V) calf serum and 3% (W/V) methyl cellulose to give a final 1×DME supplemented with 1% calf serum and 1.5% methylcellulose. Infected plates were incubated at 37° C. in a humidified 10% CO2 atmosphere for 48 hours. Virus plaques were visualized by staining with crystal violet and counted under a dissecting microscope. Virus titers were calculated from the plaque numbers by averaging the plaque count and multiplying by 3.3 (0.3 ml plates).
The following procedure was employed to assay virucidal activity in various test samples. Compounds were received as a solution in DMSO and were serially diluted in HBSS as described for each experiment. For the test, 1 ml of each dilution was mixed with 1 ml of a stock virus suspension diluted to approximately 9×10^3 plaque forming units (P.F.U.)/ml. This test mixture was incubated at 25° C. for 30 minutes, then inoculated onto a cell culture (HEP-2) for plaque assay as described previously. Mock treated (virus plus HBSS) controls were included with each test. Any reduction of plaque titer by test compounds as compared to the mock treated control was indicative of virucidal activity.
Samples from RP-HPLC fractionation of the CLOH, produced according to Example 2, as well as purified samples of palmitic, myristic and oleic acids and Vitamin D2, were tested for HSV-2 bioactivity. […] Pure oleic acid was not active in this assay, nor were palmitic and myristic acids and Vitamin D2. […]

PR4 bacteriophage = PR4 bacteriophage in vitro; cited from earlier work
[3] = test system: gram-positive and gram-negative microorganisms; details: cited from earlier work

## CCCCCC=CCC=CCC=CCCCCCO [gamma-linolenyl alcohol, 6,9,12-octadecatrien-1-ol]
virus
  antiviral activity in vitro, in words: most active

## Nc1nc2c(ncn2COCCO)c(=O)[nH]1 [Acyclovir, 9-(2-hydroxyethoxymethyl)guanine, reference compound]
HSV-2; ACV 5% wt/vol in DMSO
  Max. Lesion Score: ±
  # Infected, Day 14: 3
  # of Deaths, Day 14: 0
HSV-2; ACV 5% wt/vol in PEG
  Max. Lesion Score: ±
  # Infected, Day 14: 4
  # of Deaths, Day 14: 0
HSV-2; DMSO & Acyclovir (5%)
  % Mortality: 0%
  Day of Maximum % Morbidity: 7 days
  Maximum % Morbidity: 30%
  Mean Day of Death: > 14 days
HSV-2; Ointment & Acyclovir (5%)
  % Mortality: 0%
  Day of Maximum % Morbidity: 7 days
  Maximum % Morbidity: 40%
  Mean Day of Death: > 14 days
HSV-2; both carrier vehicles, observed 14 day period
  survival rate: 100%
HSV-2; topical, HSV-2 infected mice
  efficacy in mice in words: effective in minimizing the clinical signs of infection in either carrier vehicle
[1]
  Toxicity Controls Surv/Total: 5/5
[1]; 0 to 4 scale
  Toxicity Controls Max. Irrit. Score: 0.0
Herpes virus type 2; B: 5% w/w ACV in PEG-1000
  MVL Score Day 5: 1.8
  MVL Score Day 7: 3.4
Herpes virus type 2; B: 5% w/w ACV in PEG-1000, 0 to 4 scale
  MVL Scores Days 5-8: 2.8
Herpes virus type 2; B: 5% w/w ACV in PEG-1000, 28 days
  Infected, Treated Surv/Total: 5/10
Herpes virus type 2; B: 5% w/w ACV in PEG-1000, P < 0.05
  MVL Score Day 6: 2.3
Herpes virus type 2; B: 5% w/w ACV in PEG-1000, last day
  MVL Score Day: 3.3
Herpes virus type 2; guinea pigs, topical
  reduction in lesion scores, in words: neither ACV nor the lowest dosage of DHA were able to achieve a statistically significant reduction in lesion scores

## CCCCCCCC/C=C\CCCCCCCC(=O)O [Oleic acid, reference compound]
bacteriophage
  inactivation of virus (virucidal activity), in words: most effective fatty acid tested
[2]; Table 1, dilution 1:10
  plaque count: 36
[2]; Table 1, dilution 1:10, controls 2.6 × 10^4 (a), 1.3 × 10^4 (b)
  titer: 1.2 × 10^2
[2]; Table 1, dilution 1:100
  plaque count: TNTC
[2]; Table 1, dilution 1:200
  plaque count: TNTC
[2]; Table 1, dilution 1:400
  plaque count: TNTC
[2]; Table 1, dilution 1:800
  plaque count: TNTC
[2]; Table 1, dilution 1:1600
  plaque count: TNTC
[2]; Table 1, dilution 1:3200
  plaque count: TNTC
[2]; Table 1, dilution 1:6400
  plaque count: TNTC
[2]; in vitro bioassay
  virucidal activity against HSV-2 in words: not active
PR4 bacteriophage
  inhibition of viral replication, in words: most effective

## CCCCC/C=C\C/C=C\C/C=C\C/C=C\CCCC(=O)O [Arachidonic acid]
[3]
  inhibition of growth of microorganisms, in words: not inhibitory at the concentrations tested
PR4 bacteriophage
  inhibition of viral replication, in words: moderately effective, but less effective than linolenic acid

## CCCCCC/C=C\CCCCCCCC(=O)O [palmitoleic acid]
PR4 bacteriophage
  inhibition of viral replication, in words: most effective
